{
  "source": "patent US20040198981A1",
  "about": "“Tricyclic dihydroquinoline derivatives,method for preparing same and pharmaceutical compositions containing same” (priority 2001, published 2004)",
  "test_system": "murine leukaemia, L1210",
  "experiment": "In vitro cytotoxicity, Microculture Tetrazolium Assay",
  "type": "cell-based",
  "details": "Mus musculus, 48 h; L1210 cells, incubated for 2 days; read-out: IC50 (concentration of cytotoxic agent which inhibits proliferation of the treated cells by 50%)",
  "method": "Three cell lines were used:\n1 murine leukaemia, L1210,\n1 human non-small-cell lung carcinoma, A549,\n1 human colon carcinoma, HT29.\nThe cells are cultured in RPMI 1640 complete culture medium containing 10% foetal calf serum, 2 mM glutamine, 50 units/ml of penicillin, 50 μg/ml of streptomycin and 10 mM Hepes, pH=7.4. The cells are distributed on microplates and are exposed to the cytotoxic compounds. The cells are then incubated for 2 days (L1210) or 4 days (A549, HT29). The number of viable cells is then quantified by a colorimetric assay, the Microculture Tetrazolium Assay (Cancer Res. 1987, 47, 939-942).",
  "data": [
    {"smiles": "COc1cc(C2C3=C(COC3=S)N(Cc3ccccc3)c3cc4c(cc32)OCO4)cc(OC)c1OC", "note": "(stereo not shown) [Example 5, 4-Benzyl-6,7-methylenedioxy-9-(3,4,5-trimethoxyphenyl)-4,9-dihydrofuro[3,4-b]quinoline-1(3H)-thione]", "values": [
      {"measurement": "IC50", "result": 0.19, "unit": "µM"}
    ]}
  ]
}
